Measured values published in patent publication US12522598B2, “3-(2-(heteroaryl)-pyridin-4-yl)-5-(trifluoromethyl)-1,2,4-oxadiazole derivatives as HDAC6 inhibitors” (ORYZON GENOMICS, S.A., priority 2019, dated 2026).
Where a name gives a salt, the structure may show the parent alone.

Target: T1, HDAC6 (Homo sapiens, UniProt Q9UBN7)
T1 construct: purchased BPS Bioscience 50006
T1 sequence (Q9UBN7 1-1215): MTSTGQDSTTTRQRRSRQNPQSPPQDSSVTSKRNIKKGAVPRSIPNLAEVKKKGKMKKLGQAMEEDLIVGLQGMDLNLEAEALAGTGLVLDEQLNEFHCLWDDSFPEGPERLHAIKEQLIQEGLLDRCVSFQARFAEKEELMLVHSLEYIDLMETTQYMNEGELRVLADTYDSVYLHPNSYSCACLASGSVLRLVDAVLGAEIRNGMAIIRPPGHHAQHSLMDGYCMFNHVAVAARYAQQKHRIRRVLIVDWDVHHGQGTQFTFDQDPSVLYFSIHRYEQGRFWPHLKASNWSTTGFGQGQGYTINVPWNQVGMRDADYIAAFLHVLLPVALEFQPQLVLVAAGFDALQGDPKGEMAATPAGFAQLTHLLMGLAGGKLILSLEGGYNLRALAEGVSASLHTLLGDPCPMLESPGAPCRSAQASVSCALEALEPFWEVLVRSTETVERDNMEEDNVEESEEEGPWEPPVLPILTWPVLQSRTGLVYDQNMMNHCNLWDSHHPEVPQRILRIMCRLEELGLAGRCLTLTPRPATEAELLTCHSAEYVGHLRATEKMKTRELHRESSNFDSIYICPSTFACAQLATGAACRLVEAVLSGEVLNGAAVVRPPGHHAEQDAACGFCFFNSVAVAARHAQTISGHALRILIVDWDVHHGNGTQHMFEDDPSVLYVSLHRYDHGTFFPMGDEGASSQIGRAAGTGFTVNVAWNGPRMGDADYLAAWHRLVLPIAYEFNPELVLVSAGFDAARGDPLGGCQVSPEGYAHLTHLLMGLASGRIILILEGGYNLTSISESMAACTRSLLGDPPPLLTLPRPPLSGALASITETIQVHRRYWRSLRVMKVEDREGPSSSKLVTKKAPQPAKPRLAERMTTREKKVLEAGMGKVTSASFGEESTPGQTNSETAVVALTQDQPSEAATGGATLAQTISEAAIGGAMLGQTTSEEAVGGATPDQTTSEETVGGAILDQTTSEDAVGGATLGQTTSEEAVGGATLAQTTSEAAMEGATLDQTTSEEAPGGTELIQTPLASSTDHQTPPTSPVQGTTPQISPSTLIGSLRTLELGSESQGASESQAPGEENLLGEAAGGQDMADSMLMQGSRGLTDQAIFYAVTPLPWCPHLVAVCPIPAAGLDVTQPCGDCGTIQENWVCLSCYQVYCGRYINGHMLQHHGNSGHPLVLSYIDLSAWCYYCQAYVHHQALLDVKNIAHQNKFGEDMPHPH
Experiment: HDAC6 enzyme inhibition assay (fluorimetric)
Assay type: biochemical
Settings: 3 hours preincubation with enzyme, fraction of positive control; for inhibition at 0.1 µM: 0.1 μM test compound, read-out: HDAC6 % inh @ 0.1 μM; for inhibition at 0.3 µM: 0.3 μM test compound, read-out: HDAC6 % inh @ 0.3 μM; for inhibition at 1 µM: 1 μM test compound, read-out: HDAC6 % inh @ 1 μM
Protocol: A fluorimetric assay was used to determine the biochemical activity of the inhibitors on HDAC6 in 96-Well Half Area Black Microplates (Corning #3686)+TopSeal-A Black Sealing Film (Perkin Elmer #6050173). Test compounds were dissolved in DMSO. Half-log serial dilutions of test compounds were prepared in DMSO and then diluted 1:10 in assay buffer (BPS Bioscience #50031).
2.5 μL of enzyme (BPS Bioscience #50006) was incubated with 2.5 μL of test compounds for 3 hours in assay buffer with 0.1 mg/mL Bovine Serum Albumin (Sigma-Aldrich #A7030) at 21° C. in 22.5 μL total volume. The enzymatic reaction was started with the addition of 2.5 μL of a fluorogenic acetylated peptide substrate (BPS Bioscience #50037). The final concentration of enzyme and substrate in the reaction were 8.8 nM and 9 μM, respectively. After 45 minutes of incubation at 37° C., the addition of 25 μL of a development solution (BPS
Bioscience #50030) releases a fluorophore whose amount is proportional to the amount of the deacetylated product. Fluorescence intensity was measured after 15 minutes incubation at 21° C. with a Tecan Infinite F200 microplate reader (excitation 360 nm-emission 460 nm).
The negative control (background) was represented by the reaction mix in the absence of the enzyme (with 0.1% DMSO), while the positive control of deacetylase activity was obtained in the absence of test compounds (with 0.1% DMSO) after background subtraction. Percentage of inhibition was calculated as a fraction of the positive control.

CN(C)CCCN(C)C(=O)c1cc2cc(-c3cc(-c4noc(C(F)(F)F)n4)ccn3)ncc2n1C [Example 1a, N-(3-(Dimethylamino)propyl)-N,1-dimethyl-5-(4-(5-(trifluoromethyl)-1,2,4-oxadiazol-3-yl)pyridin-2-yl)-1H-pyrrolo[2,3-c]pyridine-2-carboxamide]
inhibition at 0.1 µM: 74%
inhibition at 0.3 µM: 91%

COCCn1nc(-c2cc(-c3noc(C(F)(F)F)n3)ccn2)c2nccc(Cl)c21 [Example 5, 3-(2-(7-Chloro-1-(2-methoxyethyl)-1H-pyrazolo[4,3-b]pyridin-3-yl)pyridin-4-yl)-5-(trifluoromethyl)-1,2,4-oxadiazole]
inhibition at 0.1 µM: 61%
inhibition at 0.3 µM: 82%
inhibition at 1 µM: 94%

CCN(C)C(=O)c1cc2cc(-c3cc(-c4noc(C(F)(F)F)n4)ccn3)ncc2n1C [Example 2b, N-Ethyl-N,1-dimethyl-5-(4-(5-(trifluoromethyl)-1,2,4-oxadiazol-3-yl)pyridin-2-yl)-1H-pyrrolo[2,3-c]pyridine-2-carboxamide hydrochloride]
inhibition at 0.1 µM: 89%
inhibition at 0.3 µM: 95%
inhibition at 1 µM: 96%
